Results from the NIST ThermoML archive (doi:10.1016/j.jct.2006.01.012).

Experiment: xn = mol fraction of the nth substance listed
Details: Liquid; for mass density: isochoric method; for viscosity: Capillary tube (Ostwald / Ubbelohde) method

CCCCCCCC [octane] + CCCCCCC
Details	mass density [kg/m3]	viscosity [mPa·s]
293.15 K, 100 kPa, x2 = 0.2808	697.8	–
293.15 K, 100 kPa, x2 = 0.5427	693.2	–
293.15 K, 100 kPa, x2 = 0.7906	688.3	–
298.15 K, 100 kPa, x2 = 0.2808	694	–
298.15 K, 100 kPa, x2 = 0.5427	689.2	0.436
298.15 K, 100 kPa, x2 = 0.7906	684.2	–
298.15 K, 5000 kPa, x2 = 0.5427	–	0.461
298.15 K, 10000 kPa, x2 = 0.5427	–	0.487
298.22 K, 100 kPa, x2 = 0.7906	–	0.408
298.22 K, 5000 kPa, x2 = 0.7906	–	0.435
298.22 K, 10000 kPa, x2 = 0.7906	–	0.459
298.39 K, 100 kPa, x2 = 0.2808	–	0.467
298.39 K, 5000 kPa, x2 = 0.2808	–	0.493
298.39 K, 10000 kPa, x2 = 0.2808	–	0.521
299.24 K, 3824 kPa, x2 = 0.5427	691.8	–
299.24 K, 6865 kPa, x2 = 0.5427	694.6	–
299.24 K, 9316 kPa, x2 = 0.5427	696.4	–
303.15 K, 100 kPa, x2 = 0.2808	689.9	–
303.15 K, 100 kPa, x2 = 0.5427	685	–
303.15 K, 100 kPa, x2 = 0.7906	680.1	–
303.39 K, 100 kPa, x2 = 0.5427	–	0.414
303.39 K, 5000 kPa, x2 = 0.5427	–	0.435
303.39 K, 10000 kPa, x2 = 0.5427	–	0.459
303.85 K, 100 kPa, x2 = 0.2808	–	0.441
303.85 K, 5000 kPa, x2 = 0.2808	–	0.465
303.85 K, 10000 kPa, x2 = 0.2808	–	0.492
305.74 K, 100 kPa, x2 = 0.7906	–	0.379
305.74 K, 5000 kPa, x2 = 0.7906	–	0.402
305.74 K, 10000 kPa, x2 = 0.7906	–	0.425
306.18 K, 2942 kPa, x2 = 0.2808	690.3	–
306.18 K, 7021 kPa, x2 = 0.2808	693.8	–
306.18 K, 8826 kPa, x2 = 0.2808	695.3	–
307.62 K, 2608 kPa, x2 = 0.7906	678.6	–
307.62 K, 7178 kPa, x2 = 0.7906	683	–
307.62 K, 9140 kPa, x2 = 0.7906	684.6	–
308.15 K, 100 kPa, x2 = 0.2808	686.1	–
308.15 K, 100 kPa, x2 = 0.5427	680.9	–
308.15 K, 100 kPa, x2 = 0.7906	675.9	–
312.71 K, 100 kPa, x2 = 0.2808	–	0.4
312.71 K, 5000 kPa, x2 = 0.2808	–	0.424
312.71 K, 10000 kPa, x2 = 0.2808	–	0.446
312.74 K, 100 kPa, x2 = 0.5427	–	0.374
312.74 K, 5000 kPa, x2 = 0.5427	–	0.396
312.74 K, 10000 kPa, x2 = 0.5427	–	0.419
312.75 K, 100 kPa, x2 = 0.7906	–	0.352
312.75 K, 5000 kPa, x2 = 0.7906	–	0.373
312.75 K, 10000 kPa, x2 = 0.7906	–	0.395
313.15 K, 100 kPa, x2 = 0.2808	681.6	–
313.15 K, 100 kPa, x2 = 0.5427	676.6	–
313.15 K, 100 kPa, x2 = 0.7906	671.6	–
318.15 K, 100 kPa, x2 = 0.2808	677.4	–
318.15 K, 100 kPa, x2 = 0.5427	672.7	–
318.15 K, 100 kPa, x2 = 0.7906	667.3	–
321.21 K, 100 kPa, x2 = 0.5427	–	0.338
321.21 K, 5000 kPa, x2 = 0.5427	–	0.359
321.21 K, 10000 kPa, x2 = 0.5427	–	0.38
321.71 K, 100 kPa, x2 = 0.2808	–	0.362
321.71 K, 5000 kPa, x2 = 0.2808	–	0.384
321.71 K, 10000 kPa, x2 = 0.2808	–	0.405
323.15 K, 100 kPa, x2 = 0.2808	673.2	–
323.15 K, 100 kPa, x2 = 0.5427	668.5	–
323.15 K, 100 kPa, x2 = 0.7906	663	–
323.82 K, 100 kPa, x2 = 0.7906	–	0.314
323.82 K, 5000 kPa, x2 = 0.7906	–	0.334
